# Laboratory results: article PMC13185115, “Photovermellogens: Minimalistic Pyridinium-Based Acylhydrazones with Photoswitchable Basicity for Operation in Aqueous Media” (The Journal of Organic Chemistry, 2026)
# Experiments:
# Format in all cases: physicochemical
# [1] = Thermal Z-P to E-P isomerization of the kinetically trapped conjugate bases at pH 13; conditions: 26 µM, pH 13, room temperature, monitored at 429 nm
# From the text: Having confirmed the photochemical behavior of the protonated forms, we next explored their light-responsiveness in the deprotonated state. […] To probe whether Z-P a–c could nonetheless be generated indirectly, we explored a consecutive photoisomerization–deprotonation sequence. Thus, E-P a–cH^+ was first irradiated at 254 nm and pH 6 to enrich the Z population, followed by immediate adjustment of the solution to pH 13. Under these conditions, transient spectroscopic features were observed, consistent with the kinetic trapping of the metastable Z-P a–c species. […]
# To gain further insight into the behavior of the metastable Z-bases, absorbance changes of the kinetically trapped state were monitored over time in the dark for the whole P a–c series. […]
# (§1) Figure S169. […] Right: Kinetics (monitored at 429 nm) of the isomerization of Z-P a to E-P a (26 µM) at room temperature. k = 7.2 × 10 –4 s–1.
# (§2) Figure S170. […] Right: Kinetics (monitored at 429 nm) of the photoisomerization of Z-P a to E-P a (26 µM) upon irradiation at >495 nm. k = 2.5 × 10 –3 s–1. […]
# is in blue. Right: Kinetics (monitored at 456 nm) of the isomerization of Z-P b to E-P b (15 µM) at room temperature. k = 8.9 × 10 –5 s–1. […]
# is in blue. Right: Kinetics (monitored at 432 nm) of the isomerization of Z-P c to E-P c (16 µM) at room temperature. k = 8.4 × 10 –5 s–1.
# [2] = Irradiation of the conjugate bases (E→Z attempt; Z→E at >495 nm); conditions: 26 µM, pH 13, irradiation at >495 nm, monitored at 429 nm
# From the text: Having confirmed the photochemical behavior of the protonated forms, we next explored their light-responsiveness in the deprotonated state. […] To probe whether Z-P a–c could nonetheless be generated indirectly, we explored a consecutive photoisomerization–deprotonation sequence. Thus, E-P a–cH^+ was first irradiated at 254 nm and pH 6 to enrich the Z population, followed by immediate adjustment of the solution to pH 13. Under these conditions, transient spectroscopic features were observed, consistent with the kinetic trapping of the metastable Z-P a–c species. […] These spectroscopic observations enabled the estimation of virtual pK a values for the Z-enriched solutions (Table and Figures S163–168, SI1), which confirmed the reduced acidity of the NH group in the Z-isomers, presumably arising from intramolecular hydrogen-bond formation.
# To gain further insight into the behavior of the metastable Z-bases, absorbance changes of the kinetically trapped state were monitored over time in the dark for the whole P a–c series.
# 7. Thermal Z-P a-c→E-P a-c isomerizations from the PSS […]
# as §1, §2
# [3] = Thermal Z-PH+ to E-PH+ back-isomerization kinetics; conditions: Arrhenius analysis, 47, 55 and 64 °C, from 254 nm photostationary state
# From the text: Photoisomerization studies were subsequently carried out in acidic medium (pH = pK a – 2) in order to assess the photoresponse of the protonated species. Under these conditions, the anticipated photoisomerization of the thermally stable E-P a–dH^+ species was investigated by UV–vis absorption spectroscopy under irradiation at 254 nm. […] It is noteworthy that the irradiation wavelength can be extended to 365 nm, yielding virtually the same observations as for 254 nm irradiation (see footnotes of Table ). Irradiation also produced clear NMR spectral changes that support the occurrence of the E→Z isomerization. In essence, the signals Hf–h of the phenyl moiety were only slightly affected, whereas those of the pyridinium and acylhydrazone fragments shifted markedly, consistent with the formation of an intramolecular hydrogen bond in the Z-P a–cH^+ species. The reverse Z→E transformation of the protonated forms P a–cH^+ was also achieved upon irradiation at λ > 420 nm, giving lower quantum yields and less favorable PSDs (Figures S145–S147, S149–154, S1).
# 5.5. Z-P a-cH+→E-P a-cH+ thermal back-isomerization kinetics.
# Figure S155. Absorption spectrum variation during 48h at room temperature from the PSS reached for P aH·Cl (7µM, pH 6, Red) state during 48h. E-isomer absorption spectrum in green.
# Even though the kinetics has not been fully completed, it can be observed that it occurs much more slowly than photochemical processes.
# To obtain an estimation of P aH·Cl Z→E thermal half-live at room temperature, the Z →E thermal reversion kinetics were monitored starting from the 254nm photostationary state at different temperatures (47, 55 and 64 °C). By tracking the absorbance changes at 420 nm, an Arrhenius analysis was performed, allowing the determination of the activation energy (EA) and the estimation of the thermal half-life at 25 °C.
SMILES,k thermal isomerization Z-P to E-P [1],k photoisomerization Z-P to E-P [2],activation energy E A of thermal Z→E reversion [3] [kcal·mol^–1]
C[n+]1ccc([N-]/N=C\C(=O)c2ccccc2)cc1 [Z-P a],7.2 10^–4 s^–1,2.5 10^–3 s^–1,
C[n+]1ccc(N/N=C\C(=O)c2ccccc2)cc1 [Z-P aH^+],,,17.4
